{"source": "patent US20220016277A1", "about": "“MACROCYCLIC COMPLEXES OF RADIONUCLIDES AND THEIR USE IN RADIOTHERAPY OF CANCER” (Cornell University, priority 2018, published 2022)", "key": {"[1]": {"experiment": "Kinetic inertness of ^225Ac complexes: challenge with excess La^3+", "type": "physicochemical", "details": "50-fold excess of La^3+; macropa 0.59 μM; RT; over 7 days", "description": "Kinetic Inertness of ^225Ac Complexes of Macropa and DOTA.\nGeneral. Stock solutions of La(NO3)3 (0.001 M or 0.1 M) were prepared in H2O. To the radiolabeled samples containing macropa (10 μL of 10^−5M stock; 1.0×10^−10 moles) or DOTA (10 μL of 10^_3M stock; 1.0×10^−8 moles) and ^225Ac (10 μL, 26 kBq) in NH4OAc buffer (pH 6, 0.15 M, 150 μL), a 50-fold mole excess of La^3+ was added (5 μL of 0.001 M or 0.1 M stock were added to solutions containing macropa and DOTA, respectively). The solutions were kept at room temperature and analyzed by iTLC at several time points over the course of 8 days. The iTLC plates were developed using citric acid (0.05 M, pH 5) as the eluent. Under these conditions, [^225Ac(macropa)]^+ and [^225Ac(DOTA)]^− remained at the baseline (RF=0) and any unchelated ^225Ac (^225Ac-citrate) migrated with the solvent front (RF=1). Percent of complex remaining intact was calculated by integrating area under the peaks on the radiochromatogram and dividing the counts associated with the ^225Ac-complex (RF=0) by the total counts integrated along the length of the iTLC plate.\n(§1) The long half-life of ^225Ac necessitates its stable complex retention in vivo to avoid off-target damage to normal tissues arising from the release of free ^225Ac^3+. Furthermore, the stability of ^225Ac complexes against transmetalation and transchelation needs to be high. […]"}, "[2]": {"experiment": "Stability of [^225Ac(macropa)]^+ in human serum", "type": "in vitro ADME", "description": "Transmetalation by La^3+. [^225Ac(macropa)]^+ and [^225Ac(DOTA)] were prepared using 10^−5 M and 10^−3 M stock solutions (10 μL) of macropa and DOTA, respectively, to give final ligand concentrations of 5.9×10^−7 M (macropa) and 5.9×10^−5 M (DOTA). After confirming a radiochemical yield of >90% by TLC using 0.4 M sodium citrate (pH 4) containing 10% MeOH as the mobile phase, 160 μL of human serum (an equal volume based on labeling reaction volume) were added to each radiolabeled solution. A control solution was also prepared in which water was substituted for ligand. The solutions were monitored over the course of 8 days by iTLC. The plates were developed with EDTA (50 mM, pH 5) as the eluent. Under these conditions, [^225Ac(macropa)]^+ and [^225Ac(DOTA)]^− complexes remained at the baseline (RF=0) and any ^225Ac (^225Ac-EDTA) that had been transchelated by serum migrated with the solvent front (RF=1). Percent of complex remaining intact was calculated.\nas §1, with “high. To determine the kinetic inertness, [^225Ac(macropa)]^+ was challenged with La^3+ because of the established high affinity of macropa for this metal ion.” for “high.”"}}}
{"smiles": "O=C([O-])c1cccc(CN2CCOCCOCCN(Cc3cccc(C(=O)[O-])n3)CCOCCOCC2)n1.[225Ac+3]", "note": "[[^225Ac(macropa)]^+]", "values": [{"measurement": "^225Ac complex remaining intact (radio-TLC)", "setting": "[1]", "result": 98, "unit": "%"}, {"measurement": "time ^225Ac^3+ remains complexed in human serum (radio-TLC)", "setting": "[2]", "result": "at least 8 days"}]}
